Assay results reported in patent US5141929A, “Lipophilic ethers and/or esters of D-desosamine and their compositions as anti-bacteria and anti-fungus agents” (Societe Anonyme dite: L'Oreal, priority 1988, dated 1992).
In brackets after ≈: the same amount, converted by molar mass. Read-outs that look alike come from different tables or passages of the source.

How the values were obtained:
[1] = system: propionibacterium Acnes P37; experiment: MIC by dilution method, Propionibacterium acnes strain P37; format: cell-based; conditions: for MIC: Cutibacterium acnes
Description: (§1) The activity of the esters and/or ethers of D-desosamine has been studied by the dilution method to determine the minimum inhibiting concentration (MIC) This method is described and employed by G.A. Denys et al, Antimicrobial Agents and Chemotherapy (1983) 23, 335-337 and J.J. Leyden et al, J. Am. Acad. Dermatol. (1983) 8 (1) 41-5, by using as the procionibacterium acnes strain, strain P37 furnished by Cunliffe and Holland.
This P37 strain has been the object of studies described in the following publications:
(§2) The minimum inhibiting concentration (MIC), expressed in μg/ml of the esters and/or ethers of D-desosamine tested vis-a-vis strains of propionibacterium Acnes P37, P37E⊕ and P37E⊖ and staphilococcus epidermidis ATCC 12228, is reported in the following Table I.

P37 E⊕ (sensitive) = experiment: MIC by dilution method, erythromycin-sensitive P. acnes strain P37 E⊕; format: cell-based, propionibacterium acnes; conditions: for MIC: Cutibacterium acnes
Description: as §1
(§3) On the other hand, after 8 successive sub-cultures in the same medium (RCM* 19/20, DMSO […] by volume) with the view of obtaining a progressive stabilization of this strain in this medium, a progressive resistance to erythromycin was manifested in the following form:
(§4) after spreading a standardized inoculum (DO=1.8 at 450 nm) on a gelose medium (RCM+furazolidone), in a Petri dish, a 9 mm diameter disc is deposited at its center. On the disc, 50 μg of erythromycin (in solution in DMSO) are deposited.
(§5) After 6 days at 36° C. in an anerobic medium (GAS-PAK, B.B.L. system) an inhibition zone of the growth of the strain is clearly visible (total diameter=42 mm), the majority of the colonies being situated at the periphery of the inhibition zone.
(§6) The two types of colonies are then retained by stripping of the gelose medium (sterilized platinum loop):
(§7) (2) at 1 cm beyond the periphery of the inhibition zone, there are stripped off strains called P37 E⊕.
(§8) After isolation and culturing, the P37 E⊕ and P37 E⊖ strains effectively show very different sensitivities to erythromycin as illustrated by the following respective MIC values.
as §2

P37 E⊖ (resistant) = experiment: MIC by dilution method, erythromycin-resistant P. acnes strain P37 E⊖; format: cell-based, propionibacterium acnes; conditions: for MIC: Cutibacterium acnes
Description: as §1, §3, §4, §5, §6
(§9) (1) at the interior of the inhibition zone there are stripped off strains, called P37 E⊖ by reason of their apparent resistance to erythromycin.
as §8, §2

[2] = system: staphilococcus epidermidis ATCC 12228; experiment: MIC by dilution method, staphilococcus epidermidis ATCC 12228; format: cell-based; conditions: Table I; for MIC: read-out: minimum inhibiting concentration (MIC), ATCC 12228
Description: as §1, §2

P37 [3] = experiment: IC 50 (50% survivors at constant culturing time), strain P37; format: cell-based, propionibacterium acnes; conditions: Cutibacterium acnes, read-out: IC 50 (inhibiting concentration at 50%), P37
Description: (§10) This phenomenon is confirmed by the study of the IC 50 (inhibiting concentration at 50%) which represents the concentration of erythromycin where, at a constant culturing time, 50% survivors among the population are found.

P37 E⊕ = experiment: IC 50 (50% survivors at constant culturing time), strain P37 E⊕; format: cell-based, propionibacterium acnes; conditions: Cutibacterium acnes, read-out: IC 50 (inhibiting concentration at 50%), P37 E⊕
Description: as §7, §10

P37 E⊖ = experiment: IC 50 (50% survivors at constant culturing time), strain P37 E⊖; format: cell-based, propionibacterium acnes; conditions: Cutibacterium acnes, read-out: IC 50 (inhibiting concentration at 50%), P37 E⊖
Description: as §9, §10

P37 [4] = experiment: Disc diffusion inhibition zone on gelose medium, sub-cultured strain P37; format: cell-based, propionibacterium acnes; conditions: Cutibacterium acnes, 144 h, read-out: inhibition zone of the growth of the strain, total diameter
Protocol: as §3, §4, §5

[5] = ACNESP37, Table I, P. acnes P37, read-out: minimum inhibiting concentration (MIC), P37
[6] = Table I, erythromycin-sensitive, read-out: minimum inhibiting concentration (MIC), P37 E⊕ (sensitive)
[7] = read-out: minimum inhibiting concentration (MIC), P37 E⊖ (resistant)

Molecule | MIC [1, 5] [µg/mL] | MIC (P37 E⊕ (sensitive); [6]) [µg/mL] | MIC (P37 E⊖ (resistant); [7]) [µg/mL] | MIC [2] [µg/mL] | further results
CCCCCCCCCC(=O)O[C@H]1C(OCCCC)O[C@H](C)C[C@@H]1N(C)C (stereo partly drawn) [Compound 1, O-decanoyl-2-O-butyl-1-α,β-D-desosamine] | 9 (≈ 23.3 µM) | 9 (≈ 23.3 µM) | 3.2 (≈ 8.3 µM) | 5 (≈ 13 µM) | 
CCCCCCCCCCCC(=O)O[C@H]1C(OCCCC)O[C@H](C)C[C@@H]1N(C)C (stereo partly drawn) [Compound 2, O-dodecanoyl-2-O-butyl-1-α,β-D-desosamine] | 0.4 (≈ 0.967 µM) | 0.6 (≈ 1.45 µM) | 0.9 (≈ 2.18 µM) | 3.5 (≈ 8.46 µM) | 
CCCCCCCCCCCC(=O)O[C@H]1[C@H](OCCCC)O[C@H](C)C[C@@H]1N(C)C [Compound 3, O-dodecanoyl-2-O-butyl-1-β-D-desosamine] | 15 (≈ 36.3 µM) | 0.1 (≈ 0.242 µM) | 1.9 (≈ 4.59 µM) |  | 
CCCCCCCCCCCC(=O)O[C@H]1C(OC)O[C@H](C)C[C@@H]1N(C)C (stereo partly drawn) [Compound 4, O-dodecanoyl-2-O-methyl-1-α,β-D-desosamine] | 25 (≈ 67.3 µM) | 15 (≈ 40.4 µM) |  | 3.8 (≈ 10.2 µM) | 
CCCCCCCCCCCC(=O)O[C@H]1[C@@H](OC)O[C@H](C)C[C@@H]1N(C)C [Compound 5, O-dodecanoyl-2-O-methyl-1-α-D-desosamine] | 50 (≈ 135 µM) | 50 (≈ 135 µM) |  | 3.2 (≈ 8.61 µM) | 
CCCCC/C=C\C/C=C\CCCCCCCC(=O)O[C@H]1C(OCCCC)O[C@H](C)C[C@@H]1N(C)C (stereo partly drawn) [Compound 6, O-linoleoyl-2-O-butyl-1-α,β-D-desosamine] | 0.4 (≈ 0.81 µM) | 0.7 (≈ 1.42 µM) | 0.8 (≈ 1.62 µM) | 0.2 (≈ 0.405 µM) | 
CCCCC/C=C\C/C=C\CCCCCCCC(=O)O[C@H]1[C@@H](OCCCC)O[C@H](C)C[C@@H]1N(C)C [Compound 7, O-linoleoyl-2-O-butyl-1-α-D-desosamine] | 0.15 (≈ 0.304 µM) | 1.1 (≈ 2.23 µM) |  | 1.1 (≈ 2.23 µM) | 
CCCCCCCCCCCCCCCCCCO[C@H]1C(OCCCC)O[C@H](C)C[C@@H]1N(C)C (stereo partly drawn) [Compound 8, O-octadecyl-2-O-butyl-1-α,β-D-desosamine] | 0.25 (≈ 0.517 µM) | < 0.03 | 8.8 (≈ 18.2 µM) | 2.2 (≈ 4.55 µM) | 
CCCCCCCCCCCCCCCCCCO[C@H]1[C@@H](OCCCC)O[C@H](C)C[C@@H]1N(C)C [Compound 9, O-octadecyl-2-O-butyl-1-α-D-desosamine] | 0.1 (≈ 0.207 µM) |  | 27.5 (≈ 56.8 µM) | 0.8 (≈ 1.65 µM) | MIC (P37 E⊕ (sensitive); read-out: minimum inhibiting concentration (MIC), P37 E⊕ (sensitive)): 27.5 µg/mL (≈ 56.8 µM)
CCCCCCCCCCCCCCCCCCO[C@H]1[C@H](OCCCC)O[C@H](C)C[C@@H]1N(C)C [Compound 10] | 3.12 (≈ 6.45 µM) | 0.09 (≈ 0.186 µM) | 1.56 (≈ 3.22 µM) | 0.04 (≈ 0.0827 µM) | 
CCCCCCCCCCCO[C@H]1C(OCCCCCCCCCC)O[C@H](C)C[C@@H]1N(C)C (some centres unmarked) [Compound 11] | 4 (≈ 8.51 µM) | 0.7 (≈ 1.49 µM) | 0.8 (≈ 1.7 µM) | 0.7 (≈ 1.49 µM) | 
CCCCCCCCCCCO[C@H]1[C@@H](OCCCCCCCCCC)O[C@H](C)C[C@@H]1N(C)C [Compound 12] | 1.8 (≈ 3.83 µM) | 1 (≈ 2.13 µM) | 0.8 (≈ 1.7 µM) | 0.8 (≈ 1.7 µM) | 
CCCCCCCCCCCO[C@H]1[C@H](OCCCCCCCCCC)O[C@H](C)C[C@@H]1N(C)C [Compound 13] | 1 (≈ 2.13 µM) | 0.5 (≈ 1.06 µM) | 0.02 (≈ 0.0426 µM) | 0.06 (≈ 0.128 µM) | 
CCCCCCCCOC1O[C@H](C)C[C@H](N(C)C)[C@H]1OCCCCCCCC (stereo partly drawn) [Compound 14, di-O-octyl-1,2-α,β-D-desosamine] | 0.5 (≈ 1.25 µM) | 0.6 (≈ 1.5 µM) | 0.1 (≈ 0.25 µM) | 0.5 (≈ 1.25 µM) | 
CCCCCCCCO[C@H]1O[C@H](C)C[C@H](N(C)C)[C@H]1OCCCCCCCC [Compound 15, di-O-octyl-1,2-α-D-desosamine] | 1.8 (≈ 4.5 µM) | 1 (≈ 2.5 µM) | 0.4 (≈ 1 µM) | 0.3 (≈ 0.751 µM) | 
CCCCCCCCO[C@@H]1O[C@H](C)C[C@H](N(C)C)[C@H]1OCCCCCCCC [Compound 16, di-O-octyl-1,2-β-D-desosamine] | 0.7 (≈ 1.75 µM) | 0.3 (≈ 0.751 µM) | 0.15 (≈ 0.375 µM) | 1.2 (≈ 3 µM) | 
CCCCCCCCCCCCC(CCCCCCCCCC)CO[C@H]1C(OCCCC)O[C@H](C)C[C@@H]1N(C)C (stereo partly drawn) [Compound 17, O-(2-decyl)-tetradecyl-2-O-butyl-1-α,β-D-desosamine] | 12.5 (≈ 22 µM) | 11 (≈ 19.4 µM) | 6 (≈ 10.6 µM) |  | 
CC[C@H]1OC(=O)[C@H](C)[C@@H](O[C@H]2C[C@@](C)(OC)[C@@H](O)[C@H](C)O2)[C@H](C)[C@@H](O[C@@H]2O[C@H](C)C[C@H](N(C)C)[C@H]2O)[C@](C)(O)C[C@@H](C)C(=O)[C@H](C)[C@@H](O)[C@]1(C)O [erythromycin] |  |  |  |  | MIC ([1]; ACNESP37, read-out: minimum inhibiting concentration (MIC), P37): 0.78 µg/mL (≈ 1.06 µM); MIC (P37 E⊕ (sensitive); read-out: MIC, P37 E⊕): 0.78 µg/mL (≈ 1.06 µM); MIC (P37 E⊖ (resistant); read-out: MIC, P37 E⊖): 50 µg/mL (≈ 68.1 µM); IC50 (P37 [3]): 50 µg/mL (≈ 68.1 µM); IC50 (P37 E⊕): 5 µg/mL (≈ 6.81 µM); IC50 (P37 E⊖): 100 µg/mL (≈ 136 µM); zone of inhibition at 50 µg/disc (P37 [4]): 42 mm
O-dodecanoyl-2'-erythralosamine [Compound 18] |  |  |  |  | minimum inhibiting concentration (MIC), P37 ([1]; Table I, P. acnes P37): 0.4 µg/mL; minimum inhibiting concentration (MIC), P37 E⊕ (sensitive) (P37 E⊕ (sensitive); Table I, erythromycin-sensitive): 12.5 µg/mL; minimum inhibiting concentration (MIC), P37 E⊖ (resistant) (P37 E⊖ (resistant); Table I, erythromycin-resistant): 0.4 µg/mL; minimum inhibiting concentration (MIC), ATCC 12228 [2]: 1.5 µg/mL
